Assay results as given in US9636377B2, “Compositions and methods for the treatment of retinal degeneration” (UNIVERSITE DE STRASBOURG, priority 2012, dated 2017).
*: point of attachment. Cbz = O=C(OCc1ccccc1)*; CH2F = FC*

Columns and labels:
Bbs1M390R/M390R mice = conditions: cited from earlier work
peIF2α, CHOP10 and BiP = assay: Western blot of UPR proteins in retinal explants; format: cell-based, mouse; conditions: shRNA-treated retinal explants
Protocol: (§1) Wild-type animals were on a C57BL/6 background. The retinal explant culture procedure was carried out as previously described (Reidel et al., 2006). Briefly, 15-day-old mice were sacrificed by decapitation and eyes were removed and incubated in trypsin (catalog #25200-072, Gibco, Invitrogen, Paris, France) for 10 min at 37° C. Digestion was stopped by transferring eyes in DMEM+10% fetal bovine serum (catalog #31885-023 and 10500-064, Gibco) and incubation for 10 min at 4° C. Eyes were dissected in Ame's medium (catalog#15230-097, Gibco) supplemented with 6.5 g/L glucose. First, the sclera was carefully removed, leaving the retinal pigmented epithelium (RPE) attached to the eyeball. Incisions were made at the edge of the cornea to remove the cornea, lens and hyaloid body. Then four radial incisions were made in the retina to obtain a cross shape. Retinas were transferred on a nitrocellulose culture membrane (catalog # PICMORG50, Millipore, Molsheim, France) with RPE side down and cultivated in Neurobasal A medium (catalog #108888-022, Gibco) supplemented with B27 supplement (catalog #17504-044, Gibco), L-glutamine (catalog #35050-061, Gibco) and penicillin/streptomycin (catalog #15240; Gibco). Explants were maintained at 37° C. humidified 5% CO2. Specific gene silencing using lentiviruses carrying shRNA sequences for Bbs12, Perk, Hri or Rhodopsin (Santa Cruz Biotechnology, Tebu Bio, Yvelines, France) were performed by adding 20 μl of viral suspension (1×10^5 infectious units) in the culture medium overnight before whole medium change. The infected explants were then cultured for 3 days with a half medium change on a daily basis. Explants were not maintained longer in culture to avoid unspecific apoptosis in the different retinal layers. […] Drugs were added simultaneously with viral infection to the culture medium.
Proteins were obtained by lysis in RIPA buffer (150 mM NaCl, 50 mM TrisHCl pH 8, 0.1% Tween20, catalog # P7653, T3253, 93773, Sigma-Aldrich) supplemented with Protease Inhibitors Complete Mini EDTA-free (catalog #11836 170001, Roche, Boullogne-Billancourt, France), 1 mM NaVO4 and 25 mM NaF (catalog # S6508 and S7920, Sigma-Aldrich). After retina dissociation using dounce homogenizer, samples were sonicated and protein concentration was determined using Bradford reagent (catalog #500-0006, BioRad). For Western blotting, 80 μg of whole protein extracts were loaded per lane and Ponceau S staining was used as loading control for signal quantification. Antibody binding was visualized using SuperSignal West Femto Maximum Sensitivity Substrate (catalog #34095, ThermoFisher) on a Versadoc apparitus, BioRad. Signal quantification was assed using QuantityOne software from BioRad.

rat retina = conditions: ischemia-reperfusion injury, systemic administration; cited from earlier work
RP patients = RP patients treated for 2 or 4 months; cited from earlier work
Bbs12−/− mouse retina [1] = assay: Scotopic electroretinogram of treated Bbs12−/− mice; format: in vivo; conditions: 4 weeks of age; for scotopic ERG recording: systemic VPA 5 mg/mL, systemic GBZ 50 μM, or GIV (eye drops GBZ 7.5 μM + INH 500 μM, systemic VPA)
Protocol: (§2) The Bbs12^−/− mice were generated as previously described. Bbs12^−/− mice were obtained by crossing heterozygote animals. Mice were housed in humidity and temperature controlled rooms on a 12-hour light/12-hour dark cycle with food ad libitum and water. For anti-apoptotic treatments, animals were treated with eye drops from 2 to 4 weeks of age once a day; the eye drops contain GBZ 7.5 μM and Caspase Inhibitor 500 μM for the left eye and contain 5% DMSO for the right eye. […] Eye drop treatment was achieved from 2 to 4 weeks of age and systemic treatments were achieved from 3 to 4 weeks of age. At 4 weeks of age, electrophysiological analyses were performed and the retinas were harvested for molecular analysis.
Mice were dark adapted for 12 hours before recording. Those experiments were performed under dim red light. The mice were anesthetized with the same anesthesia mix described in the section above. The pupils were dilated with eye drops of atropine 0.3% (catalog # Atropine Alcon 0.3%, Alcon, Rueil-Malmaison, France). Animals were placed on a controlled heating pad and maintained at 37° C. during the procedure. The reference electrode was placed under the head skin and the background electrode was inserted in the tail of the animal. The measuring electrode was placed on the cornea, to optimize contact between the cornea and the gold electrode, and a drop of methylcellulose gel (catalog # Ocry-gel, TVM Laboratories, Lempdes, France) was added. Flashes were delivered though a Ganzfeld equipped with light-emitting diodes with maximum output of 318 cd/m^2 (Siem Biomédicale, Nimes, France). For the scotopic ERG, the flash duration varied from 3 to 5 ms with final flash output ranging from 0.001 to 1 cd*s/m^2. Responses were amplified, filtered (1-300-Hz band pass), and digitized (Visiosystem; Siem Biomédicale). The a and b waves were measured by using a 1-75-Hz band pass to filter oscillatory potentials.

[2] = system: Bip, Chop10 and Caspase12 mRNA; assay: mRNA expression of ER stress genes in retinal explants (quantitative PCR); format: cell-based, mouse
Protocol: as §1
Total RNA was extracted with Trizol (catalog #15596-018, Invitrogen). […] was DNAse treated using TURBO DNA-free Kit (catalog # AM1907, Applied Biosystems, Villebon-sur-Yvette, France) and then reverse transcribed using the iScript cDNA synthesis kit (catalog #170-8891, BioRad, Marne-la-coquette, France). Primers (listed in supplementary methods) were purchased from Qiagen, Courtaboeuf, France. Quantitative PCR were performed using SYBR Green PCR Mix (catalog #4367659, Applied Biosystems) on a BioRad CFX96 system. mRNA expressions were expressed as relative to Gapdh RNA content, using BioRad CFX manager software. For endoplasmic reticulum stress arrays, Custom TaqMan Array 96 was purchased for Applied Biosystems; all tested genes are listed in supplementary methods.

Bbs12−/− mouse retina [3] = assay: Retinal histology (ONL thickness, cilia) of treated Bbs12−/− mice; format: in vivo; conditions: for ONL layer thickness: 4 weeks of age, 37 μm for untreated retinas
Protocol: The Bbs12^−/− mice were generated as previously described. Bbs12^−/− mice were obtained by crossing heterozygote animals. Mice were housed in humidity and temperature controlled rooms on a 12-hour light/12-hour dark cycle with food ad libitum and water. For anti-apoptotic treatments, animals were treated with eye drops from 2 to 4 weeks of age once a day; the eye drops contain GBZ 7.5 μM and Caspase Inhibitor 500 μM for the left eye and contain 5% DMSO for the right eye. […] Eye drop treatment was achieved from 2 to 4 weeks of age and systemic treatments were achieved from 3 to 4 weeks of age. At 4 weeks of age, electrophysiological analyses were performed and the retinas were harvested for molecular analysis. Sections or cells were washed with PBS 1× and shortly fixated with Formalin 10% solution for 5 minutes and washed three times with PBS 1×. The sections were then pre-incubated with Teng-T (10 mM TrisHCl (pH=7.6), 5 mM EDTA (catalog # E5768, Sigma-Aldrich), 150 mM NaCl, 0.25% gelatin (catalog # G9391, Sigma-Aldrich), 0.05% Tween-20)/10% normal goat serum (catalog #PCN5000, Gibco) for 30 min, followed by an overnight incubation with the primary antibody diluted in Teng-T/10% NGS at 4° C. Slides were then washed with PBS 1× and incubated with the indicated secondary antibody in Teng-T/10% NGS for 1 hour at room temperature. Slides were washed in PBS 1× and nuclear staining was performed with DAPI (catalog # D1306, Invitrogen). Slides were mounted with Immumount (catalog #9990402, ThermoFisher). TUNEL assays were performed using In Situ Cell Death Detection Kit (catalog #11684795910, Roche) according to suppliers' protocol. The prevalence of apoptotic nuclei was expressed as the ratio of TUNEL-positive nuclei and DAPI-stained nuclei in three different areas of the ONL per experiment. All results shown are representative of at least 3 separate experiments.

[4] = system: Bbs12 depleted retinal explants (photoreceptor apoptosis, ONL); assay: TUNEL assay, apoptotic rate of photoreceptors in shRNA-treated retinal explants; format: cell-based, mouse; conditions: for apoptotic rate (proportion of apoptotic photoreceptor nucleus): shBbs12 explants, single treatments 2 mM VPA, 25 μM GBZ, 10 μM INH, 33% without treatment
Protocol: as §1
For immunofluorescence experiments and TUNEL assay retinal explants were fixed directly on membranes with Formalin 10% for 1 hour at 4° C. Sucrose impregnation was then performed using 10%, 20% and 30% sucrose baths, 20 min each. Explants were transferred to OCT (catalog #4583, Tissue-Tek, Sakura, Villeneuve d′Ascq, France) in mold and frozen in liquid nitrogen. 8 μm thin cryosections were mounted on StarFrost slides (catalog # VS1117, Waldemar Knittel Glasbearbeitungs, Braunschweig, Germany).
Sections or cells were washed with PBS 1× and shortly fixated with Formalin 10% solution for 5 minutes and washed three times with PBS 1×. […] The prevalence of apoptotic nuclei was expressed as the ratio of TUNEL-positive nuclei and DAPI-stained nuclei in three different areas of the ONL per experiment. […]

[5] = system: eIF2α phosphorylation and BiP; assay: Western blot of phosphorylated eIF2α and BiP in retinas of treated Bbs12−/− mice; format: in vivo, mouse
Protocol: as §2, with “Bbs12^-/-” for “Bbs12^−/−”, “analysis. […] After retina dissociation using dounce homogenizer, samples were sonicated and protein concentration was determined using Bradford reagent (catalog #500-0006, BioRad). For Western blotting, 80 μg of whole protein extracts were loaded per lane and Ponceau S staining was used as loading control for signal quantification. […] Signal quantification was assed using QuantityOne software from BioRad.” for “analysis.”

[6] = control conditions (shCtl explants)

For `C[C@H](CCC(=O)NCCS(=O)(=O)O)[C@H]1CC[C@H]2[C@@H]3[C@@H](O)C[C@@H]4C[C@H](O)CC[C@]4(C)[C@H]3CC[C@]12C` [TUDCA, tauroursodeoxycholic acid], the retinal thickness (Bbs1M390R/M390R mice) is given as “induced retinal thickening”.
For `CCCC(CCC)C(=O)O` [VPA, valproic acid], the BiP protein content (peIF2α, CHOP10 and BiP) was “increased”, the CHOP10 protein content (peIF2α, CHOP10 and BiP) was “decreased” and the “eIF2α phosphorylation (peIF2α), protein level” value (“eIF2α phosphorylation (peIF2α)” for short) (peIF2α, CHOP10 and BiP) was “decreased”. For the same compound, the BiP expression (rat retina) was “increased”, the caspase-12 activation (rat retina) was “reduced” and the visual field (RP patients) was “increase of visual field in 5 to 7 patients”. The “a wave amplitude, scotopic ERG” value (Bbs12−/− mouse retina [1]) was “significantly increased”, the “b wave amplitude, scotopic ERG” value (Bbs12−/− mouse retina [1]) was “higher” and the “scotopic ERG recording” value (Bbs12−/− mouse retina [1]) was “clear amelioration”. The “Bip mRNA expression” value ([2]; after Bbs12 depletion) was “lower”, the “Caspase12 mRNA expression” value ([2]; after Bbs12 depletion) was “lower” and the “Chop10 mRNA expression” value ([2]; after Bbs12 depletion) was “lower”. The “Bip mRNA expression” value [2, 6] was “twofold increase”, the “Caspase12 mRNA expression” value [2, 6] was “not significantly changed” and the “Chop10 mRNA expression” value [2, 6] was “not significantly changed”. For the same compound, the “protective effect on photoreceptors, overall in vivo (electrophysiological and histological analysis)” value (Bbs12−/− mouse retina [3]) was “efficient to reduce photoreceptor apoptosis”, the ONL layer thickness (Bbs12−/− mouse retina [3]) was 44 μm and the “apoptotic rate (proportion of apoptotic photoreceptor nucleus)” value [4] was 17%. The apoptotic rate ([4]; shCtl explants, 2 mM VPA, TUNEL-positive nuclei/DAPI in ONL) was 13% and the BiP protein level [5] was “increased”.
In the case of “Z-Ala-Thr-Ala-Asp(O-methyl)-fluoromethyl-ketone (Cbz-ATAD(OMe)-CH2F; SMILES COC(=O)C[C@H](NC(=O)[C@H](C)NC(=O)[C@@H](NC(=O)[C@H](C)NC(=O)OCc1ccccc1)[C@@H](C)O)C(=O)CF) [INH, Promokine]”, the CHOP10 protein content (peIF2α, CHOP10 and BiP) is reported as “decrease”, the “eIF2α phosphorylation (peIF2α)” value (peIF2α, CHOP10 and BiP) is reported as “decrease” and the “apoptotic rate (proportion of apoptotic photoreceptor nucleus)” value [4] is reported as 23%.
With `N=C(N)N/N=C/c1c(Cl)cccc1Cl` [GBZ, guanabenz] the CHOP10 protein content (peIF2α, CHOP10 and BiP) was “increase”, the “eIF2α phosphorylation (peIF2α)” value (peIF2α, CHOP10 and BiP) was “maintained in a phosphorylated status” and the “a wave amplitude, scotopic ERG” value (Bbs12−/− mouse retina [1]) was “significantly increased”. For the same compound, the “b wave amplitude, scotopic ERG” value (Bbs12−/− mouse retina [1]) was “significantly increased”, the “scotopic ERG recording” value (Bbs12−/− mouse retina [1]) was “clear amelioration” and the “Bip mRNA expression” value ([2]; after Bbs12 depletion) was “decreased”. The “Caspase12 mRNA expression” value ([2]; after Bbs12 depletion) was “decreased”, the “Chop10 mRNA expression” value ([2]; after Bbs12 depletion) was “decreased” and the “protective effect on photoreceptors, overall in vivo (electrophysiological and histological analysis)” value (Bbs12−/− mouse retina [3]) was “efficient to reduce photoreceptor apoptosis”. For the same compound, the ONL layer thickness (Bbs12−/− mouse retina [3]) was 45 μm, the “apoptotic rate (proportion of apoptotic photoreceptor nucleus)” value [4] was 12% and the “phosphorylated status of eIF2α” value [5] was “increased”.
